Patent publication US6737383B1, “Herbicidal oxadiazolidines” (priority 1999, dated 2004)

What was measured:
duck salad = test: Test B flood test duck salad; type: in vivo, Heteranthera limosa
How it was run: (§1)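 Flood test on plants grown to the 2-leaf stage; treated plants kept in greenhouse twelve to sixteen days, then visually rated against controls on a 0 (no effect) to 10 (complete control) scale.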

bamyardgrass = test: Test B flood test barnyardgrass; type: in vivo, Echinochloa crus-galli
How it was run: as §1

bedstraw = test: Test B pre/postemergence bedstraw; type: in vivo, Galium aparine
How it was run: (§2)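 Test chemicals in a non-phytotoxic solvent mixture with surfactant were sprayed preemergence onto planted seeds and postemergence onto plants 2 to 18 cm tall (1- to 4-leaf stage). After twelve to sixteen days in a greenhouse, injury was visually rated against untreated controls from 0 (no effect) to 10 (complete control).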

cocklebur = test: Test B pre/postemergence cocklebur; type: in vivo, Xanthium strumarium
How it was run: as §2

wheat = test: Test B pre/postemergence wheat; type: in vivo, Triticum aestivum
How it was run: as §2

giant foxtail = test: Test B pre/postemergence giant foxtail; type: in vivo, Setaria faberii
How it was run: as §2

rice = test: Test B flood test rice; type: in vivo, Oryza sativa
How it was run: as §1

crabgrass = test: Test B pre/postemergence crabgrass; type: in vivo, Digitaria sanguinalis
How it was run: as §2

sugar beet = test: Test B pre/postemergence sugar beet; type: in vivo, Beta vulgaris
How it was run: as §2

purple nutsedge = test: Test B pre/postemergence purple nutsedge; type: in vivo, Cyperus rotundus
How it was run: as §2

velvetleaf = test: Test B pre/postemergence velvetleaf; type: in vivo, Abutilon theophrasti
How it was run: as §2

blackgrass = test: Test B pre/postemergence blackgrass; type: in vivo, Alopecurus myosuroides
How it was run: as §2

pigweed = test: Test B pre/postemergence pigweed; type: in vivo, Amaranthus retroflexus
How it was run: as §2

morningglory = test: Test B pre/postemergence morningglory; type: in vivo, Ipomoea hederacea
How it was run: as §2

wild oat = test: Test B pre/postemergence wild oat; type: in vivo, Avena fatua
How it was run: as §2

surinam grass = test: Test B pre/postemergence surinam grass; type: in vivo, Brachiaria decumbens
How it was run: as §2

[1] = Rate 62 g/ha, flood test species, Pre-emergence, visual evaluation after twelve to sixteen days
[2] = Rate 125 g/ha, under heading Pre-emergence, flood test species, visual evaluation after twelve to sixteen days
[3] = Rate 250 g/ha, Pre-emergence (flood test species), scale 0 to 10, 0 is no effect, 10 is complete control
[4] = Rate 500 g/ha, Pre-emergence section of Table B, 0 to 10 scale (0 no effect, 10 complete control)
[5] = Postemergence, Rate 62 g/ha, scale of 0 to 10, 0 is no effect, 10 is complete control
[6] = Postemergence, Rate 125 g/ha, scale 0 to 10, 0 is no effect, 10 is complete control
[7] = Postemergence, Rate 500 g/ha, scale 0 to 10, 0 is no effect, 10 is complete control
[8] = Preemergence, Rate 62 g/ha, scale of 0 to 10 where 0 is no effect and 10 is complete control
[9] = Preemergence, Rate 500 g/ha, scale of 0 to 10 where 0 is no effect and 10 is complete control
[10] = Rate 250 g/ha, Postemergence, scale of 0 to 10 where 0 is no effect and 10 is complete control
[11] = Preemergence, Rate 125 g/ha, scale 0 to 10, 0 is no effect, 10 is complete control

CC(C)N(C(=O)n1oc(=O)n(CCC2OCCCO2)c1=O)c1ccc(Cl)cc1 [Compound 532]
Plant response rating, Ducksalad (0 to 10 scale, 0 is no effect, 10 is complete control) (duck salad; [1]): 8
Ducksalad plant response rating (0 to 10 scale, 0 is no effect, 10 is complete control) (duck salad; [2]): 8
Ducksalad plant response rating (duck salad; [3]): 9
Ducksalad plant response rating (duck salad; [4]): 9
Plant response rating, Barnyardgrass (0 to 10 scale, 0 is no effect, 10 is complete control) (bamyardgrass; [1]): 0
Barnyardgrass plant response rating (0 to 10 scale, 0 is no effect, 10 is complete control) (bamyardgrass; [2]): 0
Barnyardgrass plant response rating (bamyardgrass; [3]): 9
Barnyardgrass plant response rating (bamyardgrass; [4]): 9
Bedstraw plant response rating (bedstraw; [5]): 0
Bedstraw plant response rating (bedstraw; [6]): 0
Plant response rating, Bedstraw (bedstraw; [7]): 0
Plant response rating, Bedstraw (bedstraw; [8]): 0
Bedstraw plant response rating (bedstraw; [9]): 0
Plant response rating, Bedstraw (bedstraw; [10]): 0
Cocklebur plant response rating (cocklebur; [5]): 0
Cocklebur plant response rating (cocklebur; [6]): 0
Plant response rating, Cocklebur (cocklebur; [7]): 4
Plant response rating, Cocklebur (cocklebur; [8]): 0
Cocklebur plant response rating (cocklebur; [11]): 0
Cocklebur plant response rating (0 to 10 scale) (cocklebur; Preemergence, Rate 250 g/ha): 0
Cocklebur plant response rating (cocklebur; [9]): 0
Plant response rating, Cocklebur (cocklebur; [10]): 2
Wheat plant response rating (wheat; [5]): 0
Wheat plant response rating (wheat; [6]): 0
Plant response rating, Wheat (wheat; [7]): 0
Plant response rating, Wheat (wheat; [8]): 0
Wheat plant response rating (wheat; [11]): 0
Wheat plant response rating (0 to 10 scale) (wheat; Preemergence, Rate 250 g/ha): 0
Wheat plant response rating (wheat; [9]): 0
Plant response rating, Wheat (wheat; [10]): 0
Giant foxtail plant response rating (giant foxtail; [5]): 0
Giant foxtail plant response rating (giant foxtail; [6]): 4
Plant response rating, Giant foxtail (giant foxtail; [7]): 8
Plant response rating, Giant foxtail (giant foxtail; [8]): 10
Giant foxtail plant response rating (giant foxtail; [11]): 10
Giant foxtail plant response rating (0 to 10 scale) (giant foxtail; Preemergence, Rate 250 g/ha): 10
Giant foxtail plant response rating (giant foxtail; [9]): 10
Plant response rating, Giant foxtail (giant foxtail; [10]): 4
Plant response rating, Rice (0 to 10 scale, 0 is no effect, 10 is complete control) (rice; [1]): 0
Rice plant response rating (0 to 10 scale, 0 is no effect, 10 is complete control) (rice; [2]): 1
Rice plant response rating (rice; [3]): 9
Rice plant response rating (rice; [4]): 8
Crabgrass plant response rating (crabgrass; [5]): 4
Crabgrass plant response rating (crabgrass; [6]): 4
Plant response rating, Crabgrass (crabgrass; [7]): 9
Plant response rating, Crabgrass (crabgrass; [8]): 9
Crabgrass plant response rating (crabgrass; [11]): 9
Crabgrass plant response rating (0 to 10 scale) (crabgrass; Preemergence, Rate 250 g/ha): 10
Crabgrass plant response rating (crabgrass; [9]): 10
Plant response rating, Crabgrass (crabgrass; [10]): 7
Sugarbeets plant response rating (sugar beet; [5]): 0
Sugarbeets plant response rating (sugar beet; [6]): 0
Plant response rating, Sugarbeets (sugar beet; [7]): 0
Plant response rating, Sugarbeets (sugar beet; [8]): 0
Sugarbeets plant response rating (sugar beet; [11]): 2
Sugarbeets plant response rating (0 to 10 scale) (sugar beet; Preemergence, Rate 250 g/ha): 2
Sugarbeets plant response rating (sugar beet; [9]): 3
Plant response rating, Sugarbeets (sugar beet; [10]): 0
Nutsedge plant response rating (purple nutsedge; [5]): 4
Nutsedge plant response rating (purple nutsedge; [6]): 0
Plant response rating, Nutsedge (purple nutsedge; [8]): 0
Nutsedge plant response rating (purple nutsedge; [11]): 0
Nutsedge plant response rating (0 to 10 scale) (purple nutsedge; Preemergence, Rate 250 g/ha): 0
Nutsedge plant response rating (purple nutsedge; [9]): 0
Velvetleaf plant response rating (velvetleaf; [5]): 0
Velvetleaf plant response rating (velvetleaf; [6]): 0
Plant response rating, Velvetleaf (velvetleaf; [7]): 2
Plant response rating, Velvetleaf (velvetleaf; [8]): 0
Velvetleaf plant response rating (velvetleaf; [11]): 0
Velvetleaf plant response rating (0 to 10 scale) (velvetleaf; Preemergence, Rate 250 g/ha): 0
Velvetleaf plant response rating (velvetleaf; [9]): 4
Plant response rating, Velvetleaf (velvetleaf; [10]): 2
Blackgrass plant response rating (blackgrass; [5]): 0
Blackgrass plant response rating (blackgrass; [6]): 0
Plant response rating, Blackgrass (blackgrass; [7]): 0
Plant response rating, Blackgrass (blackgrass; [8]): 0
Blackgrass plant response rating (blackgrass; [11]): 0
Blackgrass plant response rating (0 to 10 scale) (blackgrass; Preemergence, Rate 250 g/ha): 0
Blackgrass plant response rating (blackgrass; [9]): 0
Plant response rating, Blackgrass (blackgrass; [10]): 0
Redroot pigweed plant response rating (pigweed; [5]): 0
Redroot pigweed plant response rating (pigweed; [6]): 0
Plant response rating, Redroot pigweed (pigweed; [7]): 2
Plant response rating, Redroot pigweed (pigweed; [8]): 0
Redroot pigweed plant response rating (pigweed; [11]): 0
Redroot pigweed plant response rating (0 to 10 scale) (pigweed; Preemergence, Rate 250 g/ha): 0
Redroot pigweed plant response rating (pigweed; [9]): 0
Plant response rating, Redroot pigweed (pigweed; [10]): 0
Morningglory plant response rating (morningglory; [5]): 0
Morningglory plant response rating (morningglory; [6]): 3
Plant response rating, Morningglory (morningglory; [7]): 5
Plant response rating, Morningglory (morningglory; [8]): 0
Morningglory plant response rating (morningglory; [11]): 0
Morningglory plant response rating (0 to 10 scale) (morningglory; Preemergence, Rate 250 g/ha): 0
Morningglory plant response rating (morningglory; [9]): 0
Plant response rating, Morningglory (morningglory; [10]): 5
Wild oats plant response rating (wild oat; [5]): 0
Wild oats plant response rating (wild oat; [6]): 0
Plant response rating, Wild oats (wild oat; [7]): 0
Plant response rating, Wild oats (wild oat; [8]): 0
Wild oats plant response rating (wild oat; [11]): 0
Wild oats plant response rating (0 to 10 scale) (wild oat; Preemergence, Rate 250 g/ha): 0
Wild oats plant response rating (wild oat; [9]): 0
Plant response rating, Wild oats (wild oat; [10]): 0
B. signalgrass plant response rating (surinam grass; [5]): 0
B. signalgrass plant response rating (surinam grass; [6]): 0
Plant response rating, B. signalgrass (surinam grass; [7]): 0
Plant response rating, B. signalgrass (surinam grass; [8]): 0
B. signalgrass plant response rating (surinam grass; [11]): 0
B. signalgrass plant response rating (0 to 10 scale, 0 is no effect, 10 is complete control) (surinam grass; Preemergence, Rate 250 g/ha): 0
B. signalgrass plant response rating (surinam grass; [9]): 0
Plant response rating, B. signalgrass (surinam grass; [10]): 0
